Data as given in PMC9079959, “Substituted spirooxindole derivatives as potent anticancer agents through inhibition of phosphodiesterase 1” (RSC Advances, 2018).
Values joined by “and” are separate entries in the source; they are usually repeats but may differ in a detail not shown here. Equal entries are not always repeated. Where two headings read alike, the source gives them in different places.

Assays:
HCT-116 cells = assay: MTT cytotoxicity assay, colorectal cancer cell line HCT-116; format: cell-based; details: for IC50: Homo sapiens, HCT-116, MTT, 48 h; for SI (selectivity index): IC50 normal (VERO-B) / IC50 cancer (HCT-116)
Protocol: (§1) The cytotoxic activity of the compounds was tested against different mammalian cancer cells, prostate carcinoma cells (PC-3), hepatocellular carcinoma (HepG2) and colon cancer cells (HCT-116). African green monkey kidney cells (Vero-B) were used as normal cells to study the selectivity towards the cancer cells. The cell lines were obtained from the American Type Culture Collection (ATCC). The cells were cultivated at 37 °C and 10% CO2 in DMEM (Lonza, Germany) medium supplemented with 10% fetal bovine serum (Lonza, Germany), 100 IU ml^−1 penicillin and 100 μg ml^−1 streptomycin (Lonza, Germany). […] The spirooxindole derivatives were solubilized in DMSO and stored at −20 °C. The viability of the cells was quantified using 3-(4,5-dimethylthiazol-2-yl)-2,5-diphenyl tetrazolium bromide (MTT), which measures the activity of mitochondrial succinate dehydrogenase in viable cells.[45,46]
(§2) The cells were seeded in 96-well plates at a concentration of 5 × 10^4 cells per ml (100 μl per well). […] DMSO was used as a negative control (0.1%). The cells were incubated for 48 h. After that, 15 μl of MTT (5 mg ml^−1 in PBS) was added to each well and incubated for another 4 h. The formazan crystals were solubilized by 100 μl of acidified SDS solution (10% SDS/0.01 N HCl in PBS). The absorbance was measured after 14 h of incubation at 37 °C and under 5% CO2 at 570 nm by using a BioTek microplate reader. Each experiment was repeated 3 times and a standard deviation was calculated (SD±). […] The growth of the cells was monitored and the images were acquired by Gx microscopes (GXMGXD202 Inverted Microscope) at 10× magnification.

HepG2 cells = assay: MTT cytotoxicity assay, hepatocellular carcinoma HepG2; format: cell-based; details: for IC50: Homo sapiens, HepG2, MTT, 48 h
Protocol: as §1, §2

PC-3 cells = assay: MTT cytotoxicity assay, prostate cancer cell line PC-3; format: cell-based; details: for IC50: Homo sapiens, PC-3, MTT, 48 h
Protocol: as §1, §2

Vero-B cells = assay: MTT cytotoxicity assay, normal cells Vero-B; format: cell-based, African green monkey; details: Chlorocebus sabaeus, Vero B, 48 h
Protocol: as §1, §2

phosphodiesterase 1 = format: biochemical, snake
Protocol: A phosphodiesterase I inhibition assay was performed using snake venom according to a previously reported method with minute variations. Briefly, 33 mM Tris–HCl buffer of pH 8.8 (97 μl), 30 mM magnesium acetate with an enzyme concentration of 0.000742 U well^−1 and 0.33 mM bis-(p-nitrophenyl) phosphate (Sigma N-3002, 60 μl) as substrate were taken. […] After a pre-incubation period of 30 min, the enzyme with the test samples was observed spectrophotometrically for enzyme activity on a microtiter plate reader at 37 °C by following the rate of change in OD min^−1 at 410 nm of the p-nitrophenol released from p-nitrophenyl phosphate. All assays were processed in triplicate.[47]

[1] = ± SD of 3 experiments, read-out: HCT-116 (IC50)
[2] = read-out: HCT-116 (IC50, μg ml^−1)
[3] = ± SD of 3 experiments, read-out: HepG2 (IC50)
[4] = read-out: HepG2 (IC50, μg ml^−1)
[5] = ± SD of 3 experiments, read-out: PC-3 (IC50)
[6] = read-out: PC-3 (IC50, μg ml^−1)

SMILES | IC50 (HCT-116 cells; [1]) [µM] | IC50 (HCT-116 cells; [2]) [µg/mL] | SI (selectivity index) (HCT-116 cells) | IC50 (HepG2 cells; [3]) [µM] | IC50 (HepG2 cells; [4]) [µg/mL] | IC50 (PC-3 cells; [5]) [µM] | IC50 (PC-3 cells; [6]) [µg/mL] | IC50 (Vero-B cells) [µM] | inhibitory activity against phosphodiesterase enzyme (phosphodiesterase 1; at 2 μM) [%] | melting point [°C] | IC50 (phosphodiesterase 1; positive control) [µM] | SI (selectivity index) (HepG2 cells; IC50 normal (VERO-B) / IC50 cancer (HepG2)) | SI (selectivity index) (PC-3 cells; IC50 normal (VERO-B) / IC50 cancer (PC-3))
O=C(c1c[nH]c2ccccc12)[C@@H]1C(c2ccc(Cl)cc2Cl)[C@@H]2CCCN2[C@@]12C(=O)Nc1ccccc12 (stereo partly drawn) [4d, (2′R,3S,7a′S)-1′-(2,4-Dichlorophenyl)-2′-(1H-indole-3-carbonyl)-1′,2′,5′,6′,7′,7a′-hexahydrospiro[indoline-3,3′-pyrrolizin]-2-one] | 9 ± 0.6 | 4.6 | > 1 and 1 | 2 ± 0.1 | 1 | 2 ± 0.125 | 1 | 9 | 74.2 | 149 to 151 |  |  | 
O=C(O)CN(CCN(CC(=O)O)CC(=O)O)CC(=O)O [EDTA, reference compound] |  |  |  |  |  |  |  |  |  |  | 274 ± 0.007 |  | 
COc1cc(C2[C@@H](C(=O)c3c[nH]c4ccccc34)[C@]3(C(=O)Nc4ccccc43)N3CCC[C@@H]23)cc(OC)c1OC (stereo partly drawn) [4n, (2′R,3S,7a′S)-2′-(1H-Indole-3-carbonyl)-1′-(3,4,5-trimethoxyphenyl)-1′,2′,5′,6′,7′,7a′-hexahydrospiro[indoline-3,3′-pyrrolizin]-2-one] | 20 ± 1.25 | 11.1 | 2 | 28 ± 2 | 15.7 | 17 ± 2 | 9.4 | 40 |  | 179 to 181 |  | 1.4 | 2.4
